The values below come from US9920060B2, “Pyrazolo[3,4-d]pyrimidine compound or salt thereof” (TAIHO PHARMACEUTICAL CO., LTD., priority 2015, dated 2018).

Sequence of purified recombinant human HER2 protein (P04626 23-1255): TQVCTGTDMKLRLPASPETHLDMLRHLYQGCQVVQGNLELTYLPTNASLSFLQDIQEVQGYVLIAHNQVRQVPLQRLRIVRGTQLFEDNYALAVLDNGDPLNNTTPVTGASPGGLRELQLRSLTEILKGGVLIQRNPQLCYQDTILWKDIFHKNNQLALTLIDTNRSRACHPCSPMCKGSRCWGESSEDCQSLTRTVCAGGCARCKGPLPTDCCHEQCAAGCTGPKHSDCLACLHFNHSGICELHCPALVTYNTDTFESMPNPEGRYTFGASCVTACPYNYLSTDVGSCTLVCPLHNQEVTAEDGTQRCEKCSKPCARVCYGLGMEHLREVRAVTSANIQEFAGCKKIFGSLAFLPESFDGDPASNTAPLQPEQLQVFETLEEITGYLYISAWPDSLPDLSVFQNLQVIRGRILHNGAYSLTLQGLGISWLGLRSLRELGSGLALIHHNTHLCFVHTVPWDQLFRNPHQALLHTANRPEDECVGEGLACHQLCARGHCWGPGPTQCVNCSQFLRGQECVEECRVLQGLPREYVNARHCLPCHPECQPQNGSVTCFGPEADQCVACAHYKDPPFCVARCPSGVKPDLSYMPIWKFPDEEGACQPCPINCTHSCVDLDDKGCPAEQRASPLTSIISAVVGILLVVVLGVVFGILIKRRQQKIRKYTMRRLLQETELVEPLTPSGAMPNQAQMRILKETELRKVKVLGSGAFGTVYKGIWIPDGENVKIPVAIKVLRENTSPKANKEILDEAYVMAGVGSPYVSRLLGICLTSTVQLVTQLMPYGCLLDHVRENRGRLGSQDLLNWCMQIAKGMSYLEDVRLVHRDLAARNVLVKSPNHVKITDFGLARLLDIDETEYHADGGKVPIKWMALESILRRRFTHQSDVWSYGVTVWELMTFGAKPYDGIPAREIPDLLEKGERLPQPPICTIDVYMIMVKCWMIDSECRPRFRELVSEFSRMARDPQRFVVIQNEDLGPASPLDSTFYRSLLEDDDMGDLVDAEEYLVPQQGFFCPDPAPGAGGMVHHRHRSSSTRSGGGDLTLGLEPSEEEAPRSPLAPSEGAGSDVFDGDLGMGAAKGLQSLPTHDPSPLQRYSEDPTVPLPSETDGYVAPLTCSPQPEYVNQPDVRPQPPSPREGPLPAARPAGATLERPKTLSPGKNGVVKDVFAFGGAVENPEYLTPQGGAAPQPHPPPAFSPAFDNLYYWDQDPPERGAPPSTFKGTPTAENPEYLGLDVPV

For one assay, the system named is A431 cells. The assay is described as follows: Cytostatic activity against EGFR-expressing cell line A431 (CellTiter-Glo). The class given is cell-based. The settings on record: EGFR-overexpressing human epithelioid cancer cell line, 3-day culture; read-out: A431 cell growth inhibitory activity IC50 value. From the text: HER2-overexpressing human stomach cancer cell line NCI-N87 cells were suspended in RPMI1640 medium (manufactured by Life Technologies Corp.) containing 10% fetal bovine serum. Meanwhile, EGFR-overexpressing highly activated human epithelioid cancer cell line A431 cells were suspended in DMEM, high glucose medium (manufactured by Life Technologies Corp.) containing 10% fetal bovine serum. Subsequently, each cell suspension was inoculated to each well of a 384-well flat-bottom microplate and cultured at 37° C. for 1 day in an incubator containing 5% carbon dioxide. The compound of the present invention or Comparative Example compound 1 was dissolved in DMSO, and the test compound was diluted into a concentration of 500 times the final concentration using DMSO. The solution of the test compound in DMSO was diluted with the medium used in the suspension of each cell line, and this solution was added at a final concentration of DMSO of 0.2% to each well of the cell culture plate, followed by further culture at 37° C. for 3 days in an incubator containing 5% carbon dioxide.
Rate of growth inhibition (%)=(C−T)/(C)×100 T: Luminescence intensity of a well supplemented with the test compound C: Luminescence intensity of a well not supplemented with the test compound
Background: ATP-based viability assays read luminescence as a measure of living cells.
Usually IC50 stands for the concentration needed to halve the response being measured. Consider “(R,E)-4-(4-amino-1-(1-(4-dimethylamino)but-2-enoyl)piperidin-3-yl)-1H-pyrazolo[3,4-d]pyrimidine-3-carboxamido)naphthalen-1-yl dimethylcarbamate [Example 66]”, for which the IC50 is 6040 nM.

For another assay, the target named is purified recombinant human HER2 protein (Homo sapiens (Human), UniProt P04626). The assay is described as follows: Inhibitory effect on HER2-phosphorylating activity (in vitro). It counts as biochemical. Conditions: ATP 6 uM, substrate peptide 0.5 uM, 25° C. for 40 minutes. As to the method:
Next, the HER2 protein, the substrate peptide (final concentration: 0.5 uM), manganese chloride (final concentration: 10 mM), ATP (final concentration: 6 uM), and the solution of the compound of the present invention in DMSO (final concentration of DMSO: 5%) were added into a buffer solution for kinase reaction (15 mM Tris (pH 7.5), 2 mM dithiothreitol, and 0.01% Tween 20), and the mixture was incubated at 25° C. for 40 minutes for kinase reaction. The reaction was terminated by adding EDTA (final concentration: 30 mM) thereto. Finally, the unphosphorylated substrate peptide (S) and the phosphorylated peptide (P) were separated and detected by microcapillary electrophoresis using LabChip® EZ Reader II (PerkinElmer Inc.).
As to `C=CC(=O)N1CC(F)C[C@@H](n2nc(C(=O)Nc3ccc(CC(=O)N(C)C)cc3Cl)c3c(N)ncnc32)C1` (stereo partly drawn) [Example 76, 1-((3R)-1-acryloyl-5-fluoropiperidin-3-yl)-4-amino-N-(2-chloro-4-(2-(dimethylamino)-2-oxoethyl)phenyl)-1H-pyrazolo[3,4-d]pyrimidine-3-carboxamide], the IC50 came out at 5 nM.

In the case of `C=CC(=O)N1CCC[C@@H](n2nc(C(=O)Nc3cc(C)c(CC(=O)N(C)C)cc3C)c3c(N)ncnc32)C1` [Example 39, (R)-1-(1-acryloylpiperidin-3-yl)-4-amino-N-(4-(2-(dimethylamino)-2-oxoethyl)-2,5-dimethylphenyl)-1H-pyrazolo[3,4-d]pyrimidine-3-carboxamide], the IC50 was found to be 22 nM.

For the compound `C=CC(=O)N1CCC[C@@H](n2nc(C(=O)Nc3ccc(CC(=O)N(C)C)c(C)c3C)c3c(N)ncnc32)C1` [Example 13, (R)-1-(1-acryloylpiperidin-3-yl)-4-amino-N-(4-(2-(dimethylamino)-2-oxoethyl)-2,3-dimethylphenyl)-1H-pyrazolo[3,4-d]pyrimidine-3-carboxamide], the IC50 is 13 nM.

Turning to `C=CC(=O)N1CCC[C@@H](n2nc(C(=O)Nc3ccc(NC(=O)N4CCCC4)cc3C)c3c(N)ncnc32)C1` [Example 75, (R)-1-(1-acryloylpiperidin-3-yl)-4-amino-N-(2-methyl-4-(pyrrolidine-1-carboxamido)phenyl)-1H-pyrazolo[3,4-d]pyrimidine-3-carboxamide], the concentration for half-maximal inhibition (IC50) amounted to 16 nM.

As to `C=CC(=O)N1CCC[C@@H](n2nc(C(=O)Nc3ccc(CC(=O)N4CC(O)C4)cc3C)c3c(N)ncnc32)C1` [Example 73, (R)-1-(1-acryloylpiperidin-3-yl)-4-amino-N-(4-(2-(3-hydroxyazetidin-1-yl)-2-oxoethyl)-2-methylphenyl)-1H-pyrazolo[3,4-d]pyrimidine-3-carboxamide], the IC50 was determined as 74 nM.

In the case of `C=CC(=O)N1CC(F)C[C@@H](n2nc(C(=O)Nc3ccc(CC(=O)N(C)C)c(C)c3C)c3c(N)ncnc32)C1` (stereo partly drawn) [Example 77, 1-((3R)-1-acryloyl-5-fluoropiperidin-3-yl)-4-amino-N-(4-(2-(dimethylamino)-2-oxoethyl)-2,3-dimethylphenyl)-1H-pyrazolo[3,4-d]pyrimidine-3-carboxamide], the IC50 was found to be 13 nM.

On to `C=CC(=O)N1CCC[C@@H](n2nc(C(=O)Nc3ccc(CC(=O)N(C)C)cc3F)c3c(N)ncnc32)C1` [Example 25, (R)-1-(1-acryloylpiperidin-3-yl)-4-amino-N-(4-(2-(dimethylamino)-2-oxoethyl)-2-fluorophenyl)-1H-pyrazolo[3,4-d]pyrimidine-3-carboxamide], for which the half-maximal inhibitory concentration (IC50) is 21 nM.

For the compound `C=CC(=O)N1CCC[C@@H](n2nc(C(=O)Nc3ccc(CC(=O)N4CCCC4)cc3C)c3c(N)ncnc32)C1` [Example 71, (R)-1-(1-acryloylpiperidin-3-yl)-4-amino-N-(2-methyl-4-(2-oxo-2-(pyrrolidin-1-yl)ethyl)phenyl)-1H-pyrazolo[3,4-d]pyrimidine-3-carboxamide], the concentration for half-maximal inhibition (IC50) was determined as 11 nM.

As to `C=CC(=O)N1CCC[C@@H](n2nc(C(=O)Nc3ccc(CC(=O)N(C)C)c4ccccc34)c3c(N)ncnc32)C1` [Example 5, (R)-1-(1-acryloylpiperidin-3-yl)-4-amino-N-(4-(2-(dimethylamino)-2-oxoethyl)naphthalen-1-yl)-1H-pyrazolo[3,4-d]pyrimidine-3-carboxamide], the IC50 turned out to be 11 nM.

For `C=CC(=O)N1CCC[C@@H](n2nc(C(=O)Nc3ccc(OC(=O)N(C)C)cc3)c3c(N)ncnc32)C1` [Example 21, (R)-4-(1-(1-acryloylpiperidin-3-yl)-4-amino-1H-pyrazolo[3,4-d]pyrimidine-3-carboxamido)phenyldimethyl carbamate], the 50% inhibitory concentration (IC50) came to 26 nM.

Regarding `C=CC(=O)N1CCC[C@@H](n2nc(C(=O)Nc3ccc(NC(=O)N(C)C)cc3C)c3c(N)ncnc32)C1` [Example 74, (R)-1-(1-acryloylpiperidin-3-yl)-4-amino-N-(4-(3,3-dimethylureido)-2-methylphenyl)-1H-pyrazolo[3,4-d]pyrimidine-3-carboxamide], the IC50 worked out at 17 nM.
